Source: the NIST ThermoML archive (doi:10.1016/j.tca.2010.05.014)
± gives the expanded uncertainty stated by the source.

Assay: cn = amount concentration of the nth substance listed, in mol/dm3
Conditions: 101 kPa, Liquid; for viscosity: Capillary tube (Ostwald / Ubbelohde) method; for mass density: Vibrating tube method

O=C(O)CC(O)(CC(=O)O)C(=O)O [citric acid] + O
viscosity (298.15 K, c1 = 0.03): 0.8766 ± 0.0064 mPa·s | viscosity (298.15 K, c1 = 0.05): 0.8921 ± 0.0065 mPa·s | viscosity (298.15 K, c1 = 0.07): 0.9048 ± 0.0065 mPa·s | viscosity (298.15 K, c1 = 0.1): 0.9254 ± 0.0066 mPa·s | mass density (298.15 K, c1 = 0.03): 999.5 ± 0.1 kg/m3 | mass density (298.15 K, c1 = 0.05): 1000.9 ± 0.1 kg/m3 | mass density (298.15 K, c1 = 0.07): 1002.6 ± 0.1 kg/m3 | mass density (298.15 K, c1 = 0.1): 1004.8 ± 0.1 kg/m3 | viscosity (308.15 K, c1 = 0.03): 0.7136 ± 0.0058 mPa·s | viscosity (308.15 K, c1 = 0.05): 0.7253 ± 0.0059 mPa·s | viscosity (308.15 K, c1 = 0.07): 0.7595 ± 0.006 mPa·s | viscosity (308.15 K, c1 = 0.1): 0.7855 ± 0.0061 mPa·s | mass density (308.15 K, c1 = 0.03): 996.3 ± 0.1 kg/m3 | mass density (308.15 K, c1 = 0.05): 997.7 ± 0.1 kg/m3 | mass density (308.15 K, c1 = 0.07): 999.3 ± 0.1 kg/m3 | mass density (308.15 K, c1 = 0.1): 1001.8 ± 0.1 kg/m3 | viscosity (318.15 K, c1 = 0.03): 0.6253 ± 0.0055 mPa·s | viscosity (318.15 K, c1 = 0.05): 0.6261 ± 0.0055 mPa·s | viscosity (318.15 K, c1 = 0.07): 0.6527 ± 0.0056 mPa·s | viscosity (318.15 K, c1 = 0.1): 0.6766 ± 0.0057 mPa·s | mass density (318.15 K, c1 = 0.03): 992.5 ± 0.1 kg/m3 | mass density (318.15 K, c1 = 0.05): 993.8 ± 0.1 kg/m3 | mass density (318.15 K, c1 = 0.07): 995.4 ± 0.1 kg/m3 | mass density (318.15 K, c1 = 0.1): 997.9 ± 0.1 kg/m3
